Laboratory results as given in patent publication US20040242459A1 (priority 2001, published 2004).
Values joined by “and” are separate entries in the source; they are usually repeats but may differ in a detail not shown here. Equal values may be shown once.

Molecular target: T1, hPPARα/GAL4 (Homo sapiens, UniProt Q07869)
T1 construct: expressed in transfected cells; host or cells: COS-1 cells
Experiment: Gal-4 hPPAR transactivation assay in COS-1 cells (alpha)
Assay type: cell-based
Settings: two values separated by a slash in some cells
Protocol: The chimeric receptor expression constructs, pcDNA3-hPPARγ/GAL4, pcDNA3-hPPARδ/GAL4, pcDNA3-hPPARα/GAL4 were prepared by inserting the yeast GAL4 transcription factor DBD adjacent to the ligand binding domains (LBDs) of hPPARγ, hPPARδ, hPPARα, respectively. The reporter construct, pUAS(5×)-tk-luc was generated by inserting 5 copies of the GAL4 response element upstream of the herpes virus minimal thymidine kinase promoter and the luciferase reporter gene. pCMV-lacZ contains the galactosidase Z gene under the regulation of the cytomegalovirus promoter. COS-1 cells were seeded at 12×10^3 cells/well in 96 well cell culture plates in high glucose Dulbecco's modified Eagle medium (DMEM) containing 10% charcoal stripped fetal calf serum (Gemini Bio-Products, Calabasas, Calif.), nonessential amino acids, 100 units/ml Penicillin G and […] Streptomycin sulfate at 37° C. in a humidified atmosphere of 10% CO2. After 24 h, transfections were performed with Lipofectamine (GIBCO BRL, Gaithersburg, Md.) according to the instructions of the manufacturer. […] Luciferase activity in cell extracts was determined using Luciferase Assay Buffer (Promega, Madison, Wis.) in an ML3000 luminometer (Dynatech Laboratories, Chantilly, Va.). β-galactosidase activity was determined using β-D-galactopyranoside (Calbiochem, San Diego, Calif.).

T1 sequence (Q07869 239-466 limits assumed): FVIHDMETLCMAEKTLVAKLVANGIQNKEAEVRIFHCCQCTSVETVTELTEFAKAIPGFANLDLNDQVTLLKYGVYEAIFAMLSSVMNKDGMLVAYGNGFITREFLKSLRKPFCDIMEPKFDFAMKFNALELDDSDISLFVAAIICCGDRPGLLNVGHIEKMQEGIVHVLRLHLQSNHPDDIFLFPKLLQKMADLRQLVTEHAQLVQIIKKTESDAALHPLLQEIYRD
T1 sequence (P04386 1-147 partner limits assumed): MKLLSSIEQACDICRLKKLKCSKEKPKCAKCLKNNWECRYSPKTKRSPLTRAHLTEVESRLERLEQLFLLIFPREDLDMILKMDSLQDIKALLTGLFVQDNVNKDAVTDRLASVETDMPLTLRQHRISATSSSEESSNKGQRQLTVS

Compound: CCCc1cc(Oc2ccccc2)ccc1OCCc1cc2cc(CC(=O)O)ccc2[nH]1 [Compound 2, {2-[2-(4-phenoxy-2-propylphenoxy)ethyl]-1H-indol-5-yl}acetic acid]
- EC50: 1.05 µM and 1.2 µM
